# Laboratory results published in patent US8999456B2, “Method for manufacturing of drug-releasing stent coated with titanium—oxide thin film” (Industry Foundation of Chonnam National University, priority 2009, dated 2015).
# Assay: Quantity of drug attached to the stent by UV absorbance and calibration curves
# Assay type: physicochemical
# Settings: FIG. 7
# Experimental: In order to measure the quantity of α-lipoic acid and ReoPro attached to the stent, standard solutions with four concentrations were prepared for each drug. Absorbance was measured using a UV spectrometer (Shimadzu 1601, Japan) at 330 nm for α-lipoic acid and at 278 nm for ReoPro. Thus, calibration curves were drawn for α-lipoic acid and ReoPro. Then, in order to measure the quantity of the drugs attached to the stent, each 500 μL of the reaction solution was taken before and after the reaction, which were diluted by mixing with triple distilled water (2.5 mL) and subjected to absorbance measurement at 278 nm and 330 nm, respectively. The measurement result was compared with the calibration curves to determine the quantity of α-lipoic acid and ReoPro attached to the stent.
# After binding a drug on the surface of the stent that had been modified with hydroxyl groups, the amount of the bound drug was calculated using the calibration curves. […] Therefore, it can be seen that a 10 to 50 W is ideal for modification of the titanium dioxide thin film using water.
smiles,measurement,setting,value
O=C(O)CCCCC1CCSS1 (stereo not drawn) [α-lipoic acid],quantity of attached α-lipoic acid,discharge power applied for the surface modification 20 W,250 µg
same,quantity of attached α-lipoic acid,surface modification at 60 W,decreased remarkably
same,quantity of attached α-lipoic acid,"thin films modified at 10, 30, 40 and 50 W",about 150 μg
